Assay [1] deals with haematological and bone marrow tissues. The following applies: chronic administration; cited from earlier work.
Assay [2] concerns circulating endothelial progenitor cells (EPCs). Briefly: Concentration of circulating EPCs (CD34/AC133 double positive) in peripheral blood by flow cytometry after oral Vardenafil 20 mg, placebo crossover. The class given is in vivo, human. The following applies: healthy men, mean±SD. Here is the method:
10 healthy men without cardiovascular risk factors were selected for the study. The ages of the 10 men ranged from 21 to 25 years. Blood samples taken for the purposes of the study were evaluated by flow cytometry, as previously described (Scheubel R. J., Zorn H., Silber R. E., Kuss O., Morawietz H., Holtz J., Simm A. Age-dependent depression in circulating endothelial cell progenitor cells in patients undergoing coronary artery bypass grafting. J Am Coll Cardiol. 42, 2073-2080,2003).
Control samples from each subject were examined to validate the study. The samples were obtained in triplicate, on different days and at different hours of the day and examined. No significant variability was found among the subjects.
Subjects were randomly allocated to two groups of five subjects. The first group received Vardenafil 20 mg on the first visit and a placebo one week later. The second group received the placebo on the first visit and Vardenafil 20 mg one week later. […]
Analysis was performed on a sample of 150 μl of peripheral blood extracted from each subject. […] After incubation, the cells were lysed in NH4Cl lysis buffer, washed twice with PBS 1% FCS and then analysed by flow cytometry.
With reference to FIG. 1, forward and side scatter gates were set to include all viable mononuclear cells; into this gate 500,000 events were acquired. […] Cells were scored using a FACSCalibur analyzer (Becton Dickinson Immunocytometry Systems, San Jose, Calif., USA) and data processing using the CellQuest software programmes (Becton Dickinson Immunocytometry Systems).
The percentage of EPCs, in each subject, was calculated by dividing the number of double positive events by the number of total events. The total number of EPCs per volume, of each subject, per volume was calculated by multiplying the percentage of EPCs with the leukocyte count. The data is expressed as mean±SD. Comparisons of the total number of EPCs at baseline, and at two and four hours after the administration of either Vardenafil 20 mg or the placebo were analyzed by the Student's t-test for matched data. […]
(In general: Flow cytometry measures light scatter and fluorescence of single cells or particles in a stream.)

As to `CCCOc1ccc(S(=O)(=O)NCCC2CCCN2C)cc1-c1nc2c(CCC)nn(C)c2c(=O)[nH]1` (centres unmarked) [DA-8159], in assay [1], the “bone marrow density (indicated by a decrease in adipose tissue percentage)” value is recorded as “increase” and the lymphomonocytic component count result is given as “increase”.
`CCCc1nc(C)c2c(=O)[nH]c(-c3cc(S(=O)(=O)N4CCN(CC)CC4)ccc3OCC)nn12` [Vardenafil]: the “mean increase in EPCs after Vardenafil administration” value in assay [2] (four hours after Vardenafil 20 mg vs baseline) worked out at 795.7±176.7 EPCs/Ml. The “percentage increase of circulating EPCs with respect to baseline” value in assay [2] (four hours after Vardenafil 20 mg) worked out at 44.1±16.5%. Besides, the “concentration of EPCs” value in assay [2] (four hours after administration of Vardenafil 20 mg, baseline 1849.7±384.3, p<0.001) amounted to 2645.4±509.5 EPC/mL.

The values are drawn from patent US20090215782A1, “Use of PDE-5 Inhibitors for Endothelial Repair of Tissues Impaired by Trauma or Disease” (priority 2005, published 2009).
